Assay results published in patent publication US20240299393A1, “SMALL MOLECULE DISRUPTORS OF PROTEIN INTERACTIONS IN HISTONE DEACETYLASE COMPLEXES” (Dana-Farber Cancer Institute, Inc., priority 2021, published 2024).
Entries after “also recorded” stand apart in the source; their conditions may differ.

How the values were obtained:
[1] = test system: DOI-induced head-twitch response (HTR); assay: DOI-induced head-twitch response assay; assay type: in vivo, mouse
From the text: Adult male C57BL/6N mice (10-12 weeks old) purchased from Taconic laboratories (Bar Arbor, ME), and C57BL/6N Hdac2 cKO inhouse bred male mice (described previously in Ibi et al 2017) were used for the experimental groups (vehicle and E6R). For assays including Hdac2 cKO mice, we bred homozygous Hdac2loxPAoxP mice to the CaMKIIα-Cre transgenic line and used the Hdac2loxP/loxP:CaMKIIα-Cre (Hdac2 cKO) mice and control littermates. All animals were housed in groups of 5-6 in 500 cm^2 Plexiglas cages (Allentown, NJ) in the animal care facilities at 12 h light/dark cycle (lights on, 8:00 to 20:00) at 23° C. with food and water ad libitum. Cages contained bedding (Teklad ¼″ Corncob bedding, Envigo) and one Nestlests™ (Ancare, Bellmore, NY, USA). […] For the Hdac2 cKO group (n=5), an intraperitoneal injection (2 mg/kg; 10 μL/g) of the psychedelic drug (±)-2,5-dimethoxy-4-iodoamphetamine (DOI) (Sigma Aldrich) was delivered and HTR recorded and quantified. […] 24 h after the last injection, DOI (2 mg/kg; 10 μL/g) was injected and HTR subsequently recorded and quantified. […] HTR were recorded during both habituation and post-DOI administration for 30 min and quantified in 15 min bins. […] 24 h after the last injection, both groups received 2 mg/kg DOI, and HTR was recorded for each group as described above. […]

[2] = target: T1, PAH2 domain of yeast Sin3 (Saccharomyces cerevisiae, UniProt P22579); assay: Ligand-detected NMR (DLB, STD, CPMG-R2), yeast Sin3 PAH2; assay type: binding, S. cerevisiae; settings: 300 μM compound, 10 μM protein
T1 construct: Residues 402-473 of S. cerevisiae Sin3 (PAH2 domain) were inserted into pET28PP, pMALC2XE, and pGEX6P2; made in house; host or cells: E. coli BL21 (DE3)
T1 sequence (P22579 402-473): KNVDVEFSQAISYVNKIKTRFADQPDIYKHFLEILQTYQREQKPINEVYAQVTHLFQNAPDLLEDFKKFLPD
Procedure: Ligand-detected NMR experiments: all results were acquired using a 3 mm tube at 25° C. on a Bruker 600 MHz Avance II system equipped with a CPPTCI cryoprobe (Bruker BioSpin Corp.). In all experiments, the concentration of E6R was fixed at 300 μM (from a stock of 25 mM in deuterated DMSO) and the concentration of the protein at 10 μM. The volume of deuterated DMSO was kept constant (1.5%) in all tested samples. Right before the experiments, the compound and protein were diluted in 1×PBS containing 0.1% deuterated dithiothreitol (DTT) to a total volume of 200 μL. Samples were diluted by 5% with D2O for magnetic field lock. Spectra were acquired for ligand only, protein only, and ligand+protein. […] STD experiments [Mayer et al 2001] were acquired with 160 scans, with protein irradiation applied for 3 s at 0 ppm and −20 ppm for the on and off resonance experiments, respectively. On and off resonance spectra were collected and stored separately. One-dimensional CPMG-R2 edited experiments [Hajduk et al 1997] were collected for samples with and without proteins using seven CPMG delays (0, 25, 50, 100, 300, 500, and 800 ms) with four scans per delay. Proton spectra used to measure DLB and chemical shift perturbations in the absence and presence of the proteins were recorded with 16 scans using a recycle delay of 3 s. […]

For `C[C@@H](NC(=O)c1c(O)n2ccccc2nc1=O)c1ccccc1` [E6R, 4-hydroxy-2-oxo-N—((R)-1-phenylethyl)-3,4-dihydro-2H-pyrido[, 2-a]pyrimidine-3-carboxamide], the “DOI-induced HTR” value ([1]; HDAC2 cKO mice, 50 mg/kg chronic, vs untreated HDAC2 cKO) was “no additive effect”, the “DOI-induced HTR” value ([1]; WT mice, 50 mg/kg chronic 10 days, DOI 2 mg/kg) was “significantly reduced” and the “binding to yeast Sin3 PAH2 by NMR” value [2] was “Sin3 PAH2 binder; also recorded: bound state”.
